Experimental data taken from patent US9005678B1, “Pharmaceutical composition for treating cancer and use thereof” (Jiangsu Province Institute of Traditional Chinese Medicine, priority 2013, dated 2015).

Key:
TRPV1 mRNA = TRPV1 mRNA expression in DRG by real-time PCR; assay type: in vivo, rat; details: L4-L6 DRG; oxaliplatin model group; P<0.01
Method: (§1) (2) Modeling and Administration: The first day of drug treatment was referred to as d1. […] After the last administration, the rats were sacrificed. Spinal cord and L5 dorsal root ganglia were harvested from all experimental animals, and taken to make tissue sections, which were stained with Nissl staining to observe the extent of damage in neurons. The expressions of pain-related TRP ion channel proteins, TRPMS, TRPV1, and TRPA1mRNA, in dorsal root ganglion tissue were determined by qPCR assay. (4) Von Frey test for mechanical allodynia: According to the method described by Chaplan et al^[22], the mechanical allodynia was assessed by von Frey test. Rats were placed in a clear plastic box (22×12×22 cm) with a wire mesh floor and allowed to habituate for 15 min prior to testing. […] Withdrawal responses to the stimulation of von Frey filaments were recorded and paw withdrawal thresholds were determined by a modified up-down method. Each von Frey filament with equivalent force was measured for five times, and the time interval between simulations was 30 seconds, 3 or more times of positive reactions out of 5 simulations was deemed to be mechanical allodynia. […]
(§2) To elucidate the mechanism of the preventive effect of AC591 on oxaliplatin-induced peripheral neuropathy, we determined the expression of TRPM8, TRPV1 and TRPA1 mRNA in L4-L6 DRG using real-time PCR.

TRPM8 mRNA = TRPM8 mRNA expression in DRG by real-time PCR; assay type: in vivo, rat; details: L4-L6 DRG; oxaliplatin model group; P<0.01
Method: as §1, §2

DRG neurons = experiment: Nissl staining of L5 dorsal root ganglia sections of CIPN rats; assay type: in vivo, rat; details: oxaliplatin 4 mg/kg i.p.
Method: (§3) (2) Modeling and Administration: The first day of drug treatment was referred to as d1. […] After the last administration, the rats were sacrificed. Spinal cord and L5 dorsal root ganglia were harvested from all experimental animals, and taken to make tissue sections, which were stained with Nissl staining to observe the extent of damage in neurons. The expressions of pain-related TRP ion channel proteins, TRPMS, TRPV1, and TRPA1mRNA, in dorsal root ganglion tissue were determined by qPCR assay. (4) Von Frey test for mechanical allodynia: According to the method described by Chaplan et al^[22], the mechanical allodynia was assessed by von Frey test. Rats were placed in a clear plastic box (22×12×22 cm) with a wire mesh floor and allowed to habituate for 15 min prior to testing. […] 3.

[1] = cumulative dose of 1170 mg/m^2; cited from earlier work
[2] = Body weight of CIPN rats (oxaliplatin-induced peripheral neuropathy model); assay type: in vivo, rat; details: oxaliplatin 4 mg/kg i.p. twice per week; after 7 days of modeling
From the text: (§4) Animals were housed 3 per cage in a temperature- and humidity-controlled environment under a 12/12-h light/dark cycle. Food and water were freely available. All experimental procedures were approved by the Animal Experimental committee of Jiangsu Province Academy of Traditional Chinese Medicine. All efforts were made to minimize the number of animals used and their suffering.
(§5) (1) Animal Grouping: the rats were randomly divided into five groups by using randomized grouping method (N=10 rats/group):
(§6) Group 1: saline (control group)
as §3

CIPN rats = experiment: Von Frey test for mechanical allodynia in CIPN rats; assay type: in vivo, rat; details: oxaliplatin 4 mg/kg i.p.; 14 days after the experiment; P<0.05
From the text: as §4, §5, §6, §3

[3] = test system: CT26 murine colorectal cancer cells; experiment: Colorectal cancer subcutaneous xenograft, tumor volume; assay type: in vivo, Balb/c mice; details: oxaliplatin 5 mg/kg i.p.; days 4 and 7; P<0.05
Method: Experimental Animals and Cell Lines: Six-week-old Balb/c mice weighing (16±2) g, bisexual each half, were purchased from Shanghai Slac Laboratory Animal Center and kept in SPF Laboratory Animal Room in Institute of Chinese Medicine and Pharmacy of Jiangsu Province. CT26 murine colorectal cancer cells were obtained from molecular biology laboratory of Institute of Chinese Medicine and Pharmacy of Jiangsu Province.
CT26 cells were cultured in Dulbecco's Modified Eagle Medium with 2.0 g/1 sodium bicarbonate plus 10% fetal bovine serum, 1% L-glutamine, 100 U/ml penicillin and 100 U/ml streptomycin. When the cells were approximately 80% confluent, the culture medium was discarded and washed with PBS. Trypsin was then introduced to perform digestion. When the connection between cells appeared loose, the trypsin was discarded, and cell culture medium was introduced to terminate the digestion. Cells were repeatedly and gently pipetted with a pipette so as to be taken off the wall to form cell suspension. It was collected into centrifuge tubes and centrifuged. The concentration of cell suspension was adjusted to 1×10^6/0.2 ml with 0.9% sterile saline. […]
Tumor volume and body weight were recorded every 3 days, and the tumor volume was calculated using the formula: tumor volume (mm^3)=length (mm)×width (mm)^2/2. […]

TRPA1 mRNA = TRPA1 mRNA expression in DRG by real-time PCR; assay type: in vivo, rat; details: L4-L6 DRG; oxaliplatin model group; P<0.01
Method: as §1, §2

For O=C1[O][Pt]2([NH][C@@H]3CCCC[C@H]3[NH]2)[O]C1=O [oxaliplatin], which “expression of TRPV1 mRNA, increase in model group compared with control group” value (TRPV1 mRNA) is on record?
Its value is 2-4 fold.

What about the “expression of TRPM8 mRNA, increase in model group compared with control group” value (TRPM8 mRNA) of the same compound?
The value was 2-4 fold.

What about the “DRG neuron morphology in model group” value (DRG neurons) of the same compound?
Its value is “part of cell bodies and nuclei of neurons greatly shrinked”.

And the risk of neurotoxicity [1]?
The risk of neurotoxicity was 50%.

And the “body weight of rats in model group versus control group” value [2]?
The value was “significantly lower”.

And the “mechanical paw-withdrawing threshold, model group compared with control group” value (CIPN rats)?
The value was “significantly decreased”.

What about the “tumour volumes compared with vehicle” value [3] of the same compound?
Its value is “significantly inhibited the increase of tumour volumes”.

What about the “expression of TRPA1 mRNA, increase in model group compared with control group” value (TRPA1 mRNA) of the same compound?
Its value is 2-4 fold.
